We go through 23 molecules from PubChem BioAssay (NCI).

What all share (test): growth of human tumour cells (NCI), 48 h
The subject of assay [1] is OVCAR-8 ovarian.
Assay [2] relates to KM12 colon.
Assay [3] relates to HOP-92 NSCLC.
Assay [4] has as its system BT-549 breast.
The test system of assay [5] is SNB-19 CNS.
Assay [6] has as its system SF-539 CNS.
Assay [7] concerns UACC-257 melanoma.
Assay [8] deals with RPMI-8226 leukemia.
For assay [9], the system named is SK-MEL-28 melanoma.
Assay [10] has as its system MDA-MB-231 breast.

“And” between values parts separate entries of the source, which are not always exact repeats. Equal values may be shown once.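 Each compound was tested at five concentrations against cells in 96-well plates for 48 hours. Here, GI50 denotes the concentration required for 50% inhibition of growth. TGI marks complete inhibition of growth.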

For the molecule `COc1c(OC(C)C)cc2cc(O)c(C(=O)NC3Cc4ccc(c(Cl)n4)O[C@@H]4C=C5C#C/C(=C\C#CC6OC56C4OC4CC(C)(O)C(O)C(C)O4)C(OC4CC(O)C(N(C)C)C(C)O4)COC3=O)cc2c1OC` (stereo not given in full), the GI50 in assay [1] was 26.7 µM and 1.18 µg/mL; in [2], > 36.3 µM and 10.1 µg/mL; in assay [3] it was 0.482 µg/mL; in assay [5], 17.7 µM and 0.956 µg/mL; in [6], 14.4 µM and 0.372 µg/mL; in [7], 21.9 µM and 1.08 µg/mL. For the same molecule, the results for the GI50 in assay [8] and in [9] were 0.348 µg/mL and 3.16 µg/mL, respectively. The TGI was > 36.3 µM and 37.5 µg/mL in assay [1]; > 36.3 µM and 37.5 µg/mL in assay [2]; > 36.3 µM and 2.94 µg/mL in assay [3]; more than 36.3 µM in [4]; > 36.3 µM and 37.5 µg/mL in [5]; > 36.3 µM and 5.29 µg/mL in assay [6]. The TGI in assay [7] is > 36.3 µM and 37.5 µg/mL; in assay [8], 3.67 µg/mL; in assay [9], > 36.3 µM and 37.5 µg/mL.

Regarding `Cc1ccc(-n2c(-c3cc4c([nH]c5ccccc54)c(-c4cccc(O)c4)n3)n[nH]c2=S)cc1`, the GI50 in assay [1] is 0.442 µM; in assay [2], 1.15 µM; in [3], 4.76 µM; in [5], 0.403 µM; in assay [6], 0.306 µM; in assay [7] it was 2.03 µM. For the same molecule, the GI50 in assay [10] was 1.35 µM; in assay [8], 0.808 µM; in assay [9] it was 0.628 µM. In addition, the TGI in [1] worked out at 3.67 µM; in assay [2], 5.1 µM; in assay [3] it was 27.4 µM; in assay [5], 3.7 µM; in [6], 1.06 µM; in [7] it was 7.11 µM. The TGI stood at 6.35 µM in assay [10], 3.76 µM in assay [8] and 4.22 µM in assay [9].

On to `N#C/C(=C1\OC(=N)C(c2ccc(Cl)cc2Cl)C1=O)c1ccc(Cl)cc1Cl` (stereo not given), for which the TGI in assay [1], in assay [3], in assay [5], in assay [6], in [7] and in assay [8] was more than 100 µM each time. In assay [9], this molecule yielded a TGI of more than 100 µM.

As to `O=C1C(Nc2cccc(O)c2)=C(Sc2ccccc2)C(=O)N1Cc1ccccc1`, the GI50 in assay [1] is 11.9 µM; in assay [2], 14 µM; in [4] it was 11.2 µM; in [5] it was 13 µM; in [8], 1.36 µM; in assay [9], 11.8 µM. In addition, the TGI in assay [1] was 26.9 µM; in [2], 28.8 µM; in [4], 43.5 µM; in [5] it was 27 µM; in assay [8], 4.07 µM; in assay [9], 26.1 µM.

On to `C=CC[N+]1(CC)CCN=C1CCCCCCCCCCCCCCCCC` (stereo not given), for which the GI50 in assay [6] was 0.752 µM; in [7], 0.731 µM; in [10] it was 0.763 µM; in assay [9] it was 0.816 µM. Moreover, the TGI in assay [6] was 2.05 µM; in [7] it was 2.16 µM; in [10], 2.19 µM; in assay [9], 2.04 µM.

With `CC(=O)OCC(CC[CH2][Sn]([Cl])([Cl])[c]1ccccc1)OC(C)=O` (stereo not given), the GI50 was 17.5 µM in assay [1]; 17.8 µM in [2]; 17.1 µM in [3]; 27.7 µM in [5]; 22 µM in assay [6]; 32.2 µM in assay [7]. The values for the GI50 in [8] and in assay [9] were 22.9 µM and 40.9 µM, respectively. Also, the TGI turned out to be 32.9 µM in assay [1]; 33.2 µM in assay [2]; 33.4 µM in assay [3]; 74.6 µM in assay [5]; 42.5 µM in [6]; 95.4 µM in [7]. Also, the TGI is 58.9 µM in [8] and 58.6 µM in assay [9].

As for `CC(C)OC(=O)C1Cc2c([nH]c3ccccc23)C(c2ccccc2)N1` (stereo not given), the TGI in assay [1], in assay [2], in assay [3], in assay [5], in assay [6] and in assay [7] was more than 100 µM in each case. The TGI in [8] and in assay [9] was more than 100 µM in each case.

`O=C1/C(=C/c2ccccc2O)N=C(c2ccccc2)N1c1cc(C(F)(F)F)ccc1Cl`: the GI50 in [1] was 46.3 µM; in assay [2] it was 8.29 µM; in assay [3], 19.1 µM; in assay [5] it was 31.6 µM; in assay [6], 59.5 µM; in assay [7], more than 100 µM. Besides, the GI50 in assay [10] is 20.7 µM; in assay [8], more than 100 µM; in assay [9], more than 100 µM. In addition, the TGI in [1] is more than 100 µM; in assay [2] it was more than 100 µM; in assay [3], 53 µM; in assay [5], more than 100 µM; in [6], more than 100 µM; in [7], more than 100 µM. Also, the TGI in [10] was 71.2 µM; in [8], more than 100 µM; in assay [9], more than 100 µM.

Regarding `C=CC(=O)N[C@@H](/C=C/C(=O)OCC)Cc1ccc(-c2cc(Cl)cc(Cl)c2)cc1`, the GI50 in assay [1] is 8.89 µM; in assay [2] it was 16.6 µM; in [4] it was 11.9 µM; in assay [5], 16.5 µM; in [6], 16.6 µM; in assay [10], 12.8 µM. In assay [9], the GI50 is 18.1 µM. Besides, the TGI was more than 100 µM in [1]; 93.7 µM in assay [2]; 43.8 µM in [4]; more than 100 µM in assay [5]; 39.1 µM in [6]; 48.8 µM in assay [10]. The same molecule gave a TGI in [9] of 79.8 µM.

Take `C/C(=N\NC(=O)C(N)=O)c1c(O)cc(C)oc1=O`: the TGI in [1], in assay [2], in assay [3], in assay [5], in assay [6] and in assay [7] was more than 100 µM each time. This molecule displayed a TGI in assay [9] of more than 100 µM.

Turning to `C[P+]1(c2ccccc2)CCCCC1`, the TGI in [1], in assay [2], in assay [5], in assay [6], in assay [7] and in [8] was more than 100 µM each time. In [9], the TGI is more than 100 µM.

Consider `COc1ccc(-c2c3c(N)c4c(nc3nc3c2c(C)nn3-c2ccccc2)CCCC4)cc1`, for which the GI50 was 2.82 µM in assay [1]; 3.16 µM in assay [2]; 17.2 µM in assay [4]; 10.8 µM in [5]; 14.5 µM in assay [6]; 2.43 µM in assay [7]. Also, the GI50 in assay [10] is 4.15 µM; in [8], 1.92 µM; in [9] it was 6.75 µM. Moreover, the TGI in [1] stood at 11.4 µM; in [2] it was 10.8 µM; in [4] it was 33.8 µM; in assay [5], 26.8 µM; in assay [6] it was 29.2 µM; in [7] it was 9.38 µM. The TGI in assay [10] stood at 16.9 µM; in assay [8], 4.32 µM; in [9] it was 24.3 µM.

For the molecule `CC(=O)CC(=O)CCC(=O)Nc1cccc(C(F)(F)F)c1`, the TGI in assay [1], in assay [2], in assay [3], in [5], in assay [6] and in assay [7] was more than 100 µM in each case. For the same molecule, the TGI in assay [8] was more than 100 µM.

Take `C=C1C=CC2(Br)OC3CC(C)(Cl)C(Br)CC13C2(C)C` (stereo not given): the TGI in assay [1] came out at 77.1 µM; in assay [2], 58.9 µM; in [3], 50.8 µM; in [5], 88.3 µM; in [6], 38.9 µM; in assay [7] it was 42.8 µM. Further, the values for the TGI in [8] and in assay [9] were 53.1 µM and 54.4 µM, respectively.

Take `O=C(Cc1ccccc1)C(c1ccccc1)S(=O)(=O)c1ccccc1` (stereo not given): the TGI in assay [1], in assay [2], in assay [3], in assay [5], in assay [6] and in [7] was more than 100 µM in each case. Moreover, the TGI in [8] and in [9] was more than 100 µM throughout.

Regarding `Cc1ccc(C2=Nc3ccccc3SC(c3cccc4c3OCO4)C2)cc1` (stereo not given), the TGI in assay [1] came out at 65.3 µM; in assay [2], 32.5 µM; in [5] it was 30.7 µM; in [6], 40.2 µM; in [7], 38.4 µM; in assay [8], 54.2 µM. The molecule further registered a TGI in [9] of 32.9 µM.

Regarding `c1ccc2c(CNCCN3CCNCC3)c3ccccc3c(CNCCN3CCNCC3)c2c1`, the GI50 in assay [1] was 36.9 µM; in assay [2] it was 10.3 µM; in [4] it was 28.3 µM; in assay [5] it was 20.7 µM; in assay [6], 16.4 µM; in [7] it was 62 µM. In addition, the GI50 was 16 µM in assay [10] and 42.8 µM in assay [9]. Further, the TGI is more than 100 µM in assay [1]; 26.8 µM in [2]; 75.6 µM in assay [4]; more than 100 µM in assay [5]; 37 µM in assay [6]; more than 100 µM in assay [7]. Besides, the TGI in assay [10] was 38.6 µM; in assay [9], more than 100 µM.

Take `O=C(CO)C1CC2C=CC1C2` (stereo not given): the TGI in assay [1], in assay [2], in assay [3], in assay [5], in [6] and in [7] was more than 100 µM in each case. Besides, the TGI in assay [8] and in assay [9] was more than 100 µM throughout.

Turning to `N#CNC1=NC(N)C(c2nc3ccccc3[nH]2)=C(CCCC(=O)Nc2cccc([N+](=O)[O-])c2)N1` (stereo not given), the TGI in [1], in assay [2], in [5], in [6], in assay [7] and in [8] was more than 100 µM throughout. The molecule further registered a TGI in assay [9] of more than 100 µM.

As for `Cc1ccc(NC(=O)/C(C#N)=C/c2ccccc2)c(C)c1`, the TGI in assay [1], in assay [2], in assay [3], in [5], in assay [6] and in assay [7] was more than 100 µM in each case. In addition, the TGI in assay [8] and in [9] was more than 100 µM in each case.

For `CCOC(=O)C(CCCNC(=O)OC(C)(C)C)N(Cc1ccc(OC)cc1OC)C(=O)CC(=O)CP(=O)(OCC)OCC` (stereo not given), the TGI in assay [1], in [2], in [3], in assay [5], in assay [6] and in assay [7] was more than 100 µM throughout. Further, the TGI in [8] and in [9] was more than 100 µM each time.

Regarding `c1ccc(-c2csc3ncn4cnnc4c23)cc1`, the TGI in assay [1] was more than 100 µM; in assay [2], more than 100 µM; in assay [3], 84.7 µM; in assay [5], more than 100 µM; in [6] it was more than 100 µM; in assay [8], more than 100 µM. The same molecule came in with a TGI in assay [9] of more than 100 µM.

On to `O=S(=O)(NCCCNc1nccc(-c2c(-c3ccc(F)cc3)nc3sccn23)n1)c1ccc(F)cc1`, for which the GI50 is 4.56 µM in assay [1]; 3.9 µM in [4]; 62.1 µM in assay [5]; 42.1 µM in [6]; 21.9 µM in assay [7]; 14.2 µM in assay [10]. Further, the GI50 was 5.29 µM in assay [8] and 20.3 µM in assay [9]. The TGI in [1] was more than 100 µM; in [4], 31.2 µM; in [5], more than 100 µM; in [6], more than 100 µM; in assay [7] it was more than 100 µM; in [10] it was more than 100 µM. Also, the figures for the TGI in [8] and in assay [9] were 86 µM and more than 100 µM, respectively.
